Measurements published in patent US6046190A, “Hydroxyethylamino sulphonamides useful as retroviral protease inhibitors” (G.D. Searle & Co., priority 1996, dated 2000).

System: HIV-1 in CEM cells
Assay: HIV inhibition assay of acutely infected CEM cells (tetrazolium/MTT colorimetric), antiviral efficacy
Format: cell-based
Settings: Human immunodeficiency virus 1, CCRF-CEM, 168 h
Text: Methods, 20, 309-321 (1988).
[table 42: the next 8 blocks are its lines as printed, fixed-width]

Structure (SMILES)	EC50
CC(C)CN(C[C@@H](O)[C@H](Cc1ccccc1)NC(=O)OCc1cncnc1)S(=O)(=O)c1ccc(O)cc1 [Example 41]	11 nM
CC(C)CN(C[C@@H](O)[C@H](Cc1ccccc1)NC(=O)O[C@H]1CCOC1)S(=O)(=O)c1ccc(O)cc1 [Example 45]	5 nM
CCC(C)[C@H](NC(=O)CN(C)C)C(=O)N[C@@H](Cc1ccccc1)[C@H](O)CN(CC(C)C)S(=O)(=O)c1ccc(OC)cc1 (some centres unmarked) [Example 13]	< 16 nM
CC(C)CN(C[C@@H](O)[C@H](Cc1ccccc1)NC(=O)OCc1cccnc1)S(=O)(=O)c1ccc(Cl)cc1 [Example 18]	154 nM
COc1ccc(S(=O)(=O)N(CC(C)C)C[C@@H](O)[C@H](Cc2ccccc2)NC(=O)c2cccnc2)cc1 [Example 34]	188 nM
CC(C)CN(C[C@@H](O)[C@H](Cc1ccccc1)NC(=O)OCc1cccnc1)S(=O)(=O)c1ccc2c(c1)OCO2 [Example 69]	68 nM
CCC(C)[C@H](NC(=O)CNC)C(=O)N[C@@H](Cc1ccccc1)[C@H](O)CN(CCC(C)C)S(=O)(=O)c1ccccc1 (some centres unmarked) [Example 15]	38 nM
COc1ccc(S(=O)(=O)N(CC(C)C)C[C@@H](O)[C@H](Cc2ccccc2)NC(=O)c2ccncc2)cc1 [Example 33]	68 nM

Same assay, conditions: Human immunodeficiency virus 1, CCRF-CEM, 168 h; Table 21; CEM cells, 1000 TCID50 HIV-1, 7 days; read-out: EC50

Structure (SMILES)	EC50
COc1ccc(S(=O)(=O)N(CC(C)C)C[C@@H](O)[C@H](Cc2ccccc2)NC(=O)OCc2ccc(N)nc2)cc1 [Example 38]	1100 nM
COc1ccc(S(=O)(=O)N(CC(C)C)C[C@@H](O)[C@H](Cc2ccccc2)NC(=O)O[C@H]2CCOC2)cc1 [Example 44]	8 nM
COc1ccc(S(=O)(=O)N(CC(C)C)C[C@@H](O)[C@H](Cc2ccccc2)NC(=O)OCc2ccoc2)cc1 [Example 58]	70 nM
CC(C)CN(C[C@@H](O)[C@H](Cc1ccccc1)NC(=O)OCc1cccnc1)S(=O)(=O)c1ccc([N+](=O)[O-])cc1 [Example 19]	377 nM
COc1ccc(S(=O)(=O)N(CC(C)C)C[C@@H](O)[C@H](Cc2ccccc2)NC(=O)OCc2cncnc2)cc1 [Example 23]	8 nM
CC(C)CN(C[C@@H](O)[C@H](Cc1ccccc1)NC(=O)OCc1cccnc1)S(=O)(=O)c1ccc(O)cc1 [Example 20]	13 nM
COc1ccc(S(=O)(=O)N(CC(C)C)C[C@@H](O)[C@H](Cc2ccccc2)NC(=O)OCc2cncs2)cc1 [Example 56]	40 nM
CC(C)CN(C[C@@H](O)[C@H](Cc1ccccc1)NC(=O)O[C@H]1CCS(=O)(=O)C1)S(=O)(=O)c1ccc(O)cc1 [Example 43]	63 nM
CC(C)CN(C[C@@H](O)[C@H](Cc1ccccc1)NC(=O)O[C@H]1CCSC1)S(=O)(=O)c1ccc(O)cc1 [Example 42]	< 20 nM
Cc1ccccc1C(=O)N[C@@H](Cc1ccccc1)[C@H](O)CN(CC(C)C)S(=O)(=O)c1ccc(O)cc1 [Example 37]	< 20 nM
COc1ccc(S(=O)(=O)N(CC(C)C)C[C@@H](O)[C@H](Cc2ccccc2)NC(=O)c2cccc([N+](=O)[O-])c2C)cc1 [Example 48]	210 nM
CC(C)CN(C[C@@H](O)[C@H](Cc1ccccc1)NC(=O)OCc1ccoc1)S(=O)(=O)c1ccc(N)cc1 [Example 60]	60 nM
CC(C)CN(C[C@@H](O)[C@H](Cc1ccccc1)NC(=O)OCc1cncs1)S(=O)(=O)c1ccc2c(c1)OCO2 [Example 70]	30 nM
CC(C)CN(C[C@@H](O)[C@H](Cc1ccccc1)NC(=O)OCc1cncs1)S(=O)(=O)c1ccc(O)cc1 [Example 57]	< 20 nM
Cc1c(O)cccc1C(=O)N[C@@H](Cc1ccccc1)[C@H](O)CN(CC(C)C)S(=O)(=O)c1ccc2c(c1)OCO2 [Example 73]	22 nM
COc1ccc(S(=O)(=O)N(CC(C)C)C[C@@H](O)[C@H](Cc2ccccc2)NC(=O)O[C@H]2CCSC2)cc1 [Example 46]	< 20 nM
COc1ccc(S(=O)(=O)N(CC(C)C)C[C@@H](O)[C@H](Cc2ccccc2)NC(=O)OCc2ccc(O)nc2)cc1 [Example 39]	269 nM
COc1ccc(S(=O)(=O)N(CC(C)C)C[C@@H](O)[C@H](Cc2ccccc2)NC(=O)c2cccc(N(C)C)c2C)cc1 [Example 36]	898 nM
